# Several values for one entry are separate records, joined by “and”; a condition that tells them apart may be missing. Identical values can stand only once. Toxic doses and inconclusive results are not listed.
# Tested on: BDF1 mice, B16 melanoma ip, median survival T/C
# Assay: NCI In Vivo Anticancer Drug Screen. Data for tumor model B16 Melanoma (intraperitoneal) in B6D2F1 (BDF1) mice
# Details: endpoint: median survival time, higher = longer survival
# How it was run: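 Read-out: survival or tumor size, given as treated/control ratio. Controls received vehicle only; animals bore transplantable tumors.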
# [1] = dose: 100.0 mg/kg/injection, schedule: Q04DX003 (ip), vehicle: saline with Tween-80
# [2] = dose: 200.0 mg/kg/injection, schedule: Q04DX003 (ip), vehicle: saline with Tween-80
# [3] = dose: 400.0 mg/kg/injection, schedule: Q04DX003 (ip), vehicle: saline with Tween-80
# [4] = dose: 6.25 mg/kg/injection, schedule: Q01DX009 (ip), vehicle: saline with Tween-80
# [5] = dose: 12.5 mg/kg/injection, schedule: Q01DX009 (ip), vehicle: saline with Tween-80
# [6] = dose: 100.0 mg/kg/injection, schedule: Q01DX009 (ip), vehicle: saline with Tween-80
# [7] = dose: 50.0 mg/kg/injection, schedule: Q01DX009 (ip), vehicle: saline with Tween-80
# [8] = dose: 200.0 mg/kg/injection, schedule: Q01DX009 (ip), vehicle: saline with Tween-80
# [9] = dose: 200.0 mg/kg/injection, schedule: Q04DX003 (ip), vehicle: Klucel (hydroxypropylcellulose) (HPC)
# [10] = dose: 25.0 mg/kg/injection, schedule: Q01DX009 (ip), vehicle: Klucel (hydroxypropylcellulose) (HPC)
# [11] = dose: 50.0 mg/kg/injection, schedule: Q01DX009 (ip), vehicle: Klucel (hydroxypropylcellulose) (HPC)
# [12] = dose: 100.0 mg/kg/injection, schedule: Q01DX009 (ip), vehicle: Klucel (hydroxypropylcellulose) (HPC)
# [13] = dose: 200.0 mg/kg/injection, schedule: Q01DX009 (ip), vehicle: Klucel (hydroxypropylcellulose) (HPC)
smiles,measurement,setting,value
Cc1cc(C)c(C(=O)O)c(C)c1Br,T/C,[1],102 % of control
same,T/C,[2],97 % of control
same,T/C,[3],100 % of control
O=C(NC1CCc2ccccc21)c1ccccc1 (centres undefined),T/C,[4],100 % of control
same,T/C,[5],92 % of control
same,T/C,"dose: 25.0 mg/kg/injection, schedule: Q01DX009 (ip), vehicle: saline with Tween-80",91 % of control and 95 % of control
same,T/C,[6],90 % of control
COc1ccc(/C=C/c2cnc3ccccc3n2)cc1OC,T/C,"dose: 75.0 mg/kg/injection, schedule: Q01DX009 (ip), vehicle: Klucel (hydroxypropylcellulose) (HPC)",100 % of control
same,T/C,"dose: 150.0 mg/kg/injection, schedule: Q01DX009 (ip), vehicle: Klucel (hydroxypropylcellulose) (HPC)",100 % of control
same,T/C,"dose: 300.0 mg/kg/injection, schedule: Q01DX009 (ip), vehicle: Klucel (hydroxypropylcellulose) (HPC)",92 % of control
COC1(OC)C2C=CC1CC2,T/C,[7],97 % of control
same,T/C,[6],97 % of control
same,T/C,[8],90 % of control
same,T/C,"dose: 400.0 mg/kg/injection, schedule: Q01DX009 (ip), vehicle: saline with Tween-80",96 % of control
CC1=CC(C)(C)Nc2ccc(CSc3ccccc3)cc21,T/C,"dose: 12.5 mg/kg/injection, schedule: Q01DX009 (ip), vehicle: saline + Tween-80 + alcohol",112 % of control
same,T/C,"dose: 25.0 mg/kg/injection, schedule: Q01DX009 (ip), vehicle: saline + Tween-80 + alcohol",117 % of control
same,T/C,"dose: 50.0 mg/kg/injection, schedule: Q01DX009 (ip), vehicle: saline + Tween-80 + alcohol",111 % of control
same,T/C,"dose: 100.0 mg/kg/injection, schedule: Q01DX009 (ip), vehicle: saline + Tween-80 + alcohol",96 % of control
COc1ccc(C(=O)C(C)Br)c(OCc2ccccc2)c1OC (centres undefined),T/C,[6],95 % of control
same,T/C,[1],94 % of control
same,T/C,[8],87 % of control
same,T/C,[2],100 % of control
same,T/C,[3],97 % of control
Nc1ccc(S(=O)(=O)CCCl)cc1,T/C,"dose: 12.5 mg/kg/injection, schedule: Q04DX003 (ip), vehicle: Klucel (hydroxypropylcellulose) (HPC)",100 % of control
same,T/C,"dose: 25.0 mg/kg/injection, schedule: Q04DX003 (ip), vehicle: Klucel (hydroxypropylcellulose) (HPC)",105 % of control
same,T/C,[9],99 % of control
CCCCCCCCCCCCCCCC(=O)N(CCC#N)C(C)(C)CCC(C)(C)N(CCC#N)C(=O)CCCCCCCCCCCCCCC,T/C,[10],90 % of control
same,T/C,[11],98 % of control
same,T/C,[12],91 % of control
CC[C@@H]1C[C@H]2CC3c4[nH]c5ccccc5c4CCN(C2)C31,T/C,"dose: 5.0 mg/kg/injection, schedule: Q01DX009 (ip), vehicle: saline with Tween-80",110 % of control
same,T/C,"dose: 10.0 mg/kg/injection, schedule: Q01DX009 (ip), vehicle: saline with Tween-80",107 % of control
same,T/C,"dose: 20.0 mg/kg/injection, schedule: Q01DX009 (ip), vehicle: saline with Tween-80",97 % of control
COc1ccccc1NC(=O)Nc1ccc(Nc2ccccc2)cc1,T/C,"dose: 100.0 mg/kg/injection, schedule: Q01DX009 (ip), vehicle: gum acacia",109 % of control
same,T/C,"dose: 200.0 mg/kg/injection, schedule: Q01DX009 (ip), vehicle: gum acacia",97 % of control
COC(=O)c1[nH]cnc1/N=N/N(C)C,T/C,"dose: 3.75 mg/kg/injection, schedule: Q01DX009 (ip), vehicle: saline",121 % of control
same,T/C,"dose: 15.0 mg/kg/injection, schedule: Q01DX009 (ip), vehicle: saline",121 % of control
COC1/C=C/O[C@@]2(C)Oc3c(C)c(O)c4c(O)c(cc(O)c4c3C2=O)NC(=O)/C(C)=C\C=C\[C@H](C)C(O)[C@@H](C)[C@@H](O)[C@@H](C)[C@H](OC(C)=O)[C@@H]1C (some centres undefined),T/C,[7],89 % of control
same,T/C,[6],100 % of control
same,T/C,[8],95 % of control
COc1cc(/C=C/c2nc3ccccc3nc2/C=C/c2cc(OC)c(OC)c(OC)c2)cc(OC)c1OC,T/C,[4],106 % of control
same,T/C,[5],97 % of control
CCNC(C)(C)C(S)c1ccc(Cl)s1 (centres undefined),T/C,"dose: 18.75 mg/kg/injection, schedule: Q01DX009 (ip), vehicle: saline with Tween-80",97 % of control
same,T/C,[10],97 % of control
same,T/C,"dose: 37.5 mg/kg/injection, schedule: Q01DX009 (ip), vehicle: saline with Tween-80",101 % of control
same,T/C,[11],101 % of control
same,T/C,"dose: 75.0 mg/kg/injection, schedule: Q01DX009 (ip), vehicle: saline with Tween-80",100 % of control
same,T/C,[12],95 % of control
same,T/C,"dose: 150.0 mg/kg/injection, schedule: Q01DX009 (ip), vehicle: saline with Tween-80",106 % of control
O=C(O)c1ccc2c(c1)C(=O)c1ccccc1S2(=O)=O,T/C,[12],92 % of control
same,T/C,[13],93 % of control
CC1OC(O[C@H]2C[C@](O)(C(C)O)Cc3c(O)c4c(c(O)c32)C(=O)c2c(O)cccc2C4=O)CC(NC=O)C1O (some centres undefined),T/C,"dose: 2.0 micrograms/kg/injection, schedule: Q01DX009 (ip), vehicle: saline",154 % of control
same,T/C,"dose: 4.0 micrograms/kg/injection, schedule: Q01DX009 (ip), vehicle: saline",154 % of control
same,T/C,"dose: 8.0 micrograms/kg/injection, schedule: Q01DX009 (ip), vehicle: saline",192 % of control
same,T/C,"dose: 16.0 micrograms/kg/injection, schedule: Q01DX009 (ip), vehicle: saline",249 % of control
same,T/C,"dose: 32.0 micrograms/kg/injection, schedule: Q01DX009 (ip), vehicle: saline",195 % of control
N#CC(Br)C(N)=O (centres undefined),T/C,"dose: 2.5 mg/kg/injection, schedule: Q01DX009 (ip), vehicle: saline",93 % of control
same,T/C,"dose: 5.0 mg/kg/injection, schedule: Q01DX009 (ip), vehicle: saline",94 % of control
CCCC(CCC)(C(=O)OCC)C(=O)OCC,T/C,[12],92 % of control
same,T/C,"dose: 100.0 mg/kg/injection, schedule: Q04DX003 (ip), vehicle: Klucel (hydroxypropylcellulose) (HPC)",105 % of control
same,T/C,[13],96 % of control
same,T/C,[9],97 % of control
same,T/C,"dose: 400.0 mg/kg/injection, schedule: Q01DX009 (ip), vehicle: Klucel (hydroxypropylcellulose) (HPC)",92 % of control
same,T/C,"dose: 400.0 mg/kg/injection, schedule: Q04DX003 (ip), vehicle: Klucel (hydroxypropylcellulose) (HPC)",91 % of control
O=C1c2ccccc2-c2ncccc21,T/C,[11],100 % of control
same,T/C,[12],87 % of control
same,T/C,[13],96 % of control
O=c1[nH]cc(F)c(=O)[nH]1.[Tl],T/C,"dose: 1.25 mg/kg/injection, schedule: Q01DX009 (ip), vehicle: water",95 % of control
same,T/C,"dose: 2.5 mg/kg/injection, schedule: Q01DX009 (ip), vehicle: water",100 % of control
same,T/C,"dose: 5.0 mg/kg/injection, schedule: Q01DX009 (ip), vehicle: water",102 % of control
same,T/C,"dose: 10.0 mg/kg/injection, schedule: Q01DX009 (ip), vehicle: water",113 % of control
O=NN(CCF)C(=O)NC1CCS(=O)(=O)CC1,T/C,"dose: 3.75 mg/kg/injection, schedule: Q01DX001 (ip), vehicle: saline",173 % of control
same,T/C,"dose: 7.5 mg/kg/injection, schedule: Q01DX001 (ip), vehicle: saline",241 % of control
same,T/C,"dose: 15.0 mg/kg/injection, schedule: Q01DX001 (ip), vehicle: saline",260 % of control
same,T/C,"dose: 30.0 mg/kg/injection, schedule: Q01DX001 (ip), vehicle: saline",256 % of control
same,T/C,"dose: 60.0 mg/kg/injection, schedule: Q01DX001 (ip), vehicle: saline",260 % of control
CC(C)NC(=O)N(c1ccccc1)c1ccccc1,T/C,"dose: 75.0 mg/kg/injection, schedule: Q01DX009 (ip), vehicle: gum acacia",99 % of control
same,T/C,"dose: 150.0 mg/kg/injection, schedule: Q01DX009 (ip), vehicle: gum acacia",103 % of control
same,T/C,"dose: 300.0 mg/kg/injection, schedule: Q01DX009 (ip), vehicle: gum acacia",99 % of control
CC[C@@H](C(=O)[C@@H](C)[C@@H](O)[C@H](C)CCc1ccc(C)c(O)c1C(=O)O)[C@H]1O[C@](CC)([C@H]2CC[C@](O)(CC)[C@H](C)O2)C[C@@H]1C,T/C,"dose: 1.56 mg/kg/injection, schedule: Q01DX009 (ip), vehicle: Klucel (hydroxypropylcellulose) (HPC)",111 % of control
same,T/C,"dose: 3.12 mg/kg/injection, schedule: Q01DX009 (ip), vehicle: Klucel (hydroxypropylcellulose) (HPC)",102 % of control
same,T/C,"dose: 6.25 mg/kg/injection, schedule: Q01DX009 (ip), vehicle: Klucel (hydroxypropylcellulose) (HPC)",111 % of control
c1ccc(-c2csc3c4ccccc4c4ccccc4[n+]23)cc1,T/C,"dose: 0.5 mg/kg/injection, schedule: Q01DX009 (ip), vehicle: saline with Tween-80",95 % of control
same,T/C,"dose: 1.0 mg/kg/injection, schedule: Q01DX009 (ip), vehicle: saline with Tween-80",95 % of control
same,T/C,"dose: 2.0 mg/kg/injection, schedule: Q01DX009 (ip), vehicle: saline with Tween-80",93 % of control

# From PubChem BioAssay AID192 (DTP/NCI, 2004)
